Experimental data as given in patent US10203334B2, “Methods and compositions related to nucleic acid binding assays” (Nubad, LLC, priority 2012, dated 2019).
Read-outs that look alike come from different tables or passages of the source.

Legend:
[1] = pKa of free probe from pH-dependent absorbance spectra; type: physicochemical
Protocol: The mechanism for change in fluorescence of F-Neo upon binding to A-site rRNA oligonucleotide (SEQ ID No. 1) using UV absorption spectroscopy was investigated. Effect of pH on the absorbance spectra of 3.0 mM fluorescein-neomycin in 20 mM MOPSO, 0.4 mM EDTA, 50 mM NaCl at the indicated pH values were studied.
With increasing pH, fluorescein-neomycin undergoes a transition between mono-anion and di-anion species. Fluorescein-neomycin concentration was 10 μM in 100 mM NaCl, 10 mM SC, 0.5 mM EDTA. As indicated by its absorbance spectra in FIG. 8A, the F-neo transitions from a mono-anion to a di-anion with increasing pH. FIG. 8B compares the absorbance spectra between the mono-anion and di-anion species of fluorescein neomycin. […] The absorbance peak of about 490 nm in FIGS. 8A and 8B is consistent with the phenolate species of fluorescein. The pKa for the equilibrium of the phenol and phenolate forms of F-neo (42a) was measured by evaluating the absorbance spectrum as a function of pH and shown to be 6.84. […] When monitoring the absorption spectrum in the presence of the A-site RNA (SEQ ID No. 1), a reduction in A490 consistent with the change in pKa was observed. […] This shift in pKa causes a change in the fluorescence intensity of F-neo (42a). […]

[2] = system: A-site RNA oligonucleotide (SEQ ID No. 1); type: physicochemical, E. coli
Protocol: The effect of A-site rRNA oligonucleotide (SEQ ID No. 1) on the absorbance spectra of fluorescein-neomycin at pH 7.1 was recorded in FIG. 7. The absorbance spectra of 3.0 mM fluorescein-neomycin in 20 mM MOPSO, 0.4 mM EDTA, 50 mM NaCl at pH 7.1 with the addition of 0 mM (112), 1.1 mM (114), 2.2 mM (116) or 3.3 mM (118) of A-site oligonucleotide (SEQ ID NO. 1), respectively is shown in FIG. 7A. Absorbance at 490 nm of fluorescein-neomycin:A-site complex as function of pH is show in FIG. 7B, with 3.0 mM fluorescein-neomycin complexed with 3.3 mM A-site oligonucleotide (SEQ ID No. 1) in 20 mM MOPSO, 0.4 mM EDTA, 50 mM NaCl at the indicated pH values.
With increasing pH, fluorescein-neomycin undergoes a transition between mono-anion and di-anion species. Fluorescein-neomycin concentration was 10 μM in 100 mM NaCl, 10 mM SC, 0.5 mM EDTA. As indicated by its absorbance spectra in FIG. 8A, the F-neo transitions from a mono-anion to a di-anion with increasing pH. FIG. 8B compares the absorbance spectra between the mono-anion and di-anion species of fluorescein neomycin. […] The absorbance peak of about 490 nm in FIGS. 8A and 8B is consistent with the phenolate species of fluorescein. The pKa for the equilibrium of the phenol and phenolate forms of F-neo (42a) was measured by evaluating the absorbance spectrum as a function of pH and shown to be 6.84. […] When monitoring the absorption spectrum in the presence of the A-site RNA (SEQ ID No. 1), a reduction in A490 consistent with the change in pKa was observed. This A490 reduction is consistent with a shift in equilibrium towards the protonated non-fluorescent form of fluorescein-neomycin upon binding to A-site. […] This shift in pKa causes a change in the fluorescence intensity of F-neo (42a).
The following equilibrium can be used to explain the probe function: FHNeo+Base=F(−)Neo+BH^+ Eq. (2) where FHNeo represents the protonated form of F-neo (42a). Upon binding to A-site RNA, F(−)Neo is destabilized by the negative potential of the RNA backbone, shifting the equilibrium towards FHNeo. Thus the binding of F-neo (42a) to RNA raises the pKa, making F-neo (42a) a weaker acid.
The local electrostatic potential (Ψ) in the major groove is given by the following Equation 3. Ψ=−[R·T·ln 10/(NA·e)]ΔpKa Eq. (3) Where ΔpKa is the difference between the free Fluorescein-neomycin and the Fluorescein-neomycin in the presence of the electrostatic environment, R is the universal gas constant, T is the absolute temperature in kelvin, NA is the Avogadro constant, and e is the elementary charge. R=8.312 J mol−1K−1, T=298.2K, NA=6.023×10^23 and e=1.602×10^−19; Ψ is expressed in mV. […] Based on this Δpka of 0.86, the electrostatic potential of the microenvironment for the fluorescein moiety in the complex is determined to be −50.9 mV.

[3] = system: 13 different nucleic acid structures; assay: Competition dialysis, whole panel; type: binding; details: Na^+ concentration increases from 100 to 200 mM
Text: Disclosed is the use of fluorescent aminosugar probes such as F-neo (42a) to probe a variety of nucleic acid targets. Competition dialysis was used as a nucleic acid screening technique to illustrate the binding of F-neo (42a) to different nucleic acid structures.
Competition dialysis studies using a fluorescein-neomycin conjugate (F-neo (42a)). […] Comparative binding of F-neo (42a) to 13 different nucleic acid structures was examined which included single strand nucleic acids [poly(dT), poly(A), poly(U)], duplexes [poly(dA).poly(dT), poly(rA).poly(dT), poly(rA).poly(rU), poly(dA).poly(rU), poly(dG).poly(dC), calf thymus], triplexes [poly(dA).2poly(dT), poly(rA).2poly(rU)], i-motif (polydC) and 16S A-site rRNA (SEQ ID No. 1). The amount of F-neo (42a) bound to each nucleic acid is shown as a bar graph in FIG. 13. Because all nucleic acids are dialyzed simultaneously in the same ligand solution, the amount of bound F-neo (42a) is directly proportional to its affinity for each nucleic acid. […] 200 μL of different nucleic acids (7.5 μM per monomeric unit of each polymer) was dialyzed for 72 h with 400 mL 100 nM ligand in 6 mM Na2HPO4, 2 mM NaH2PO4, 1 mM Na2EDTA, pH 7.0 and various Na+ concentrations as indicated.
The binding of F-neo (42a) to nucleic acids is affected by the salt concentration. […]

Question: Which pKa ([1]; buffer: 100 mM NaCl, free, 10 μM, 100 mM NaCl, 10 mM SC, 0.5 mM EDTA at 25° C., read-out: pKa) does the source give for NCC1O[C@H](OC2C(O)C(OC3C(O)[C@H](N)CC(N)[C@H]3O[C@H]3OC(CN)[C@@H](O)C(O)C3N)O[C@@H]2CSCCNC(=O)CCSCC(=O)Nc2ccc(-c3c4ccc(=O)cc-4oc4cc(O)ccc34)c(C(=O)O)c2)C(N)C(O)[C@@H]1O (stereo partly shown) [F-neo (42a), Neomycin-Fluorescein Conjugate] here?
Answer: 6.57

Question: And the pKa ([1]; free probe, absorbance spectrum as a function of pH, read-out: pKa for the equilibrium of the phenol and phenolate forms)?
Answer: 6.84

Question: What about the “electrostatic potential of the microenvironment for the fluorescein moiety in the complex” value ([2]; calculated from Δpka (Eq. 3)) of the same compound?
Answer: −50.9 mV

Question: What about the Δpka ([2]; complex versus free probe) of the same compound?
Answer: 0.86

Question: What about the “apparent pKa of F-neo/A-site oligonucleotide complex” value ([2]; pH-dependent absorbance spectra) of the same compound?
Answer: 7.7

Question: What about the “upward shift of the pKa upon binding of A-site” value ([2]; titration curve of A490) of the same compound?
Answer: approximately one

Question: What about the “decrease of amount bound for each nucleic acid structure” value [3] of the same compound?
Answer: 4-5 times
